Experimental data from patent publication US20040254182A1, “Enhanced propertied pharmaceuticals” (priority 2000, published 2004).

What was measured:
[1] = system: Escherichia coli 8739; test: High resolution minimum inhibitory concentration (HRMIC) test vs E. coli 8739; assay type: cell-based; conditions: M9GY medium, 96-well microtiter plate, 10^6 CFU/mL, 30° C. for 24 h; first well with no growth
Experimental: (§1) Several compounds of this invention were tested for biological activity in vitro against Escherichia coli 8739 and Staphylococcus aureus 6538 described below. The following test procedures were employed.
(§2) MIC Determination: The lowest concentration of test compound required to inhibit Escherichia coli 8739 and Staphylococcus aureus 6538 was determined by a high resolution minimum inhibitory concentration (HRMIC) test. Varying amounts of the test compounds were added to minimal salts glucose medium (Maniatis, T., Fritsch, E. F., Sambrook, J. 1982 Molecular Cloning, page 68) supplemented with 0.1% yeast extract (M9GY) in a 96-well microtiter plate. […] serial dilutions were performed on a Biomek 2000 Workstation to obtain a range of closely spaced concentrations of test compound as shown in FIG. 1. A cell suspension of inoculum, adjusted to provide 10^6 CFU/mL in each well, was added to the microtiter plate. Microtiter plates were incubated at 30° C. for 24 h and then were checked for the presence or absence of microbial growth in each well.

[2] = system: Staphylococcus aureus 6538; test: High resolution minimum inhibitory concentration (HRMIC) test vs S. aureus 6538; assay type: cell-based; conditions: M9GY medium, 96-well microtiter plate, 10^6 CFU/mL, 30° C. for 24 h; first well with no growth
Experimental: as §1, §2

Row | SMILES | MIC vs E. coli 8739 Gram-negative [1] | MIC vs S. aureus 6538 Gram-positive [2] | melting point
1 | CCn1cc(C(=O)O)c(=O)c2cc(F)c(N3CCNCC3)cc21 [Norfloxacin, reference compound] | 0.2 ppm AI | 0.9 ppm AI | 
2 | CCn1cc(C(=O)O)c(=O)c2cc(F)c(N3CCN(C(=O)OC(OC(=O)C(C)c4ccc(CC(C)C)cc4)C(=O)OC(C)C)CC3)cc21 (centres unmarked) [Compound 8-4, 7-(4-[(2-[4-(2-Methylpropyl)phenyl]propanoyloxy)(isopropoxycarbonyl)methoxy-carbonyl]-1-piperazinyl)-1-ethyl-6-fluoro-1,4-dihydro-4-oxo-3-quinolinecarboxylic acid] | >1000 ppm AI | 0.7 ppm AI | 88 to 96.5 °C
3 | CCn1cc(C(=O)O)c(=O)c2cc(F)c(N3CCN(C(=O)OC(OC(=O)c4ccccc4)C(=O)OC(C)C)CC3)cc21 (centres unmarked) [Compound 8-2, 7-(4-[(Isopropoxycarbonyl)(benzoyloxy)methoxycarbonyl]-1-piperazinyl)-1-ethyl-6-fluoro-1,4-dihydro-4-oxo-3-quinolinecarboxylic acid] | 3 ppm AI | 0.45 ppm AI | 135 to 143 °C
4 | CCCCOC(=O)C(OC(=O)C(C)C)OC(=O)N1CCN(c2cc3c(cc2F)c(=O)c(C(=O)O)cn3CC)CC1 (centres unmarked) [Compound 8-1, 7-(4-[(Butoxycarbonyl)(2-methylpropanoyloxy)methoxycarbonyl]-1-piperazinyl)-1-ethyl-6-fluoro-1,4-dihydro-4-oxo-3-quinolinecarboxylic acid] | 2.5 ppm AI | 0.06 ppm AI | 151.5 to 160 °C
5 | CCCCCCCCCCCC(=O)OC(OC(=O)N1CCN(c2cc3c(cc2F)c(=O)c(C(=O)O)cn3CC)CC1)C(=O)OC(C)C (centres unmarked) [Compound 8-3, 7-(4-[(Isopropoxycarbonyl)(dodecanoyloxy)methoxycarbonyl]-1-piperazinyl)-1-ethyl-6-fluoro-1,4-dihydro-4-oxo-3-quinolinecarboxylic acid] | 40 ppm AI | 4.5 ppm AI | 105.5 to 109.2 °C
